Active and inactive are the calls of the source. How the calls were made is not given here.
Assay: EBV protein-peptide binding inhibitors, dose response, biochemical, fluorescence polarization (AID 1419)
Settings: cell-free protein-peptide binding, 2 h; for fold change: measured here: P channel fold over control, at 54 µM

Structure (SMILES) | IC50 | fold change
COc1ccc(-c2c(C#N)c(N)nc3sc(C(=O)c4ccccc4)c(N)c23)cc1 | 6.7 µM | 7.69
COCCCNC(=O)c1ccc2c3c(onc13)-c1ccccc1C2=O | < 0.42 µM | 217
O=c1c(/C=C(\O)c2ccccc2)nc2ccccc2n1-c1ccccc1 | 14.1 µM | 27.6
COc1ccc2nc(N3CCC(C)CC3)c(C#N)cc2c1 | 9.17 µM | 1.94
c1ccc(-c2cn3nc(-c4ccccc4)c(-c4ccccc4)nc3n2)cc1 | 0.78 µM | 21.2
CC(=O)c1ccc(NC(=O)CSc2ccsc2[N+](=O)[O-])cc1 | > 54 µM (inactive) | 1.06
O=C(Cc1nc2ccccc2[nH]c1=O)c1ccccc1 | 9.54 µM | 5.07
N#C/C(=C(/O)c1ccc(-c2cccc([N+](=O)[O-])c2)o1)c1nc2ccccc2s1 | 7.24 µM | 1.09
CC(=O)Nc1ccc(Nc2c3c4c(cccc4n(C)c2=O)C(=O)c2ccccc2-3)cc1 | < 0.42 µM | 9.61
COc1ccc2nc(C)cc(N3CCOCC3)c2c1 | > 54 µM (inactive) | 1.04
COc1ccc(C(CC(=O)N2CCCC2)c2c(OC)cc(OC)c3c(-c4ccccc4)cc(=O)oc23)cc1 (stereo not drawn) | > 54 µM (inactive) | 0.95
COC(=O)CCCC1=CC2=CC(=O)C(C)(OC(=O)c3cccs3)C(=O)C2=CN1c1cccc(C#N)c1 (stereo not drawn) | > 54 µM (inactive) | 1.49
COCCN=c1scc(-c2ccco2)n1/N=C/c1ccc(O)c(O)c1O | 12 µM | 1.04
CC1=CC(=C(C#N)c2nc3ccccc3s2)C=C(C)N1c1ccc(F)cc1F | 3.98 µM | 11.2
CC(C)C[C@H]1C(=O)N2CCCC2[C@]2(O)O[C@](NC(=O)[C@@H]3C=C4c5cccc6[nH]cc(c56)CC4N(C)C3)(C(C)C)C(=O)N12 (stereo partly drawn) | 8.52 µM | 2.39
CC(=O)Nc1ccc(NC2=Nc3ccccc3N3C2=Nc2c(c(C)nn2-c2ccccc2)C3c2ccccc2)cc1 (stereo not drawn) | 4.1 µM | 3.9
CC1CN(c2nc3ccccc3nc2C(C#N)C(=O)NCc2ccc3c(c2)OCO3)CC(C)O1 (stereo not drawn) | 5.37 µM | 4.35
CCN(CC)c1ccc(/C=C(\C#N)C(=O)c2ccc(Br)cc2)cc1 | 2.69 µM | 107
COc1ccc(NC(=O)CCl)cn1 | 2.57 µM | 2.89
CC(=O)Oc1ccc2c(c1)O/C(=C\c1ccncc1)C2=O | 3.08 µM | 10.9
O=C(c1ccc2nc(-c3ccco3)c(-c3ccco3)nc2c1)N1CCN(c2ncccn2)CC1 | > 54 µM (inactive) | 1.05

Structure (SMILES) | IC50 | fold change
O=C(NCCCn1ccnc1)c1ccc2c(c1)OCCO2 | > 54 µM (inactive) | 1.03
COc1ccccc1NC(=O)c1sc2nc(Cc3ccccc3)cc(C(F)(F)F)c2c1N | 1.71 µM | 10.7
COc1ccc2nc(N3CCCC3)c(C#N)cc2c1 | < 0.42 µM | 16.7
COc1ccc2c(c1)c1nc3ccccc3nc1n2Cc1ccc(OC)c(OC)c1 | > 54 µM (inactive) | 2
Cc1cccc(N=Nc2c(O)[nH]c3ccc(F)cc23)c1 | 2.03 µM | 12
CC(=O)NC1C(OCCOc2ccc(Cl)cc2Cl)OC(COC(C)=O)C(OC(C)=O)C1OC(C)=O (stereo not drawn) | > 54 µM (inactive) | 1.04
CN(C)c1ccc(/C=C(\C#N)C(=O)Nc2nc3c(s2)CCN(Cc2ccccc2)C3)cc1 | 1.21 µM | 19.9
Cc1nn(C)cc1N1C(=O)c2cccc3c(N)ccc(c23)C1=O | < 0.42 µM | 109
O=c1[nH]c2c(s1)C=Nc1ccccc1N2 | 0.81 µM | 9.16
CN1CC=C2C(C#N)=C(N)C(C#N)(C#N)[C@H](c3cccc(Cl)c3)C2C1 (stereo partly drawn) | 3.17 µM | 4.79
Cc1cccn2c(=O)c3cc(C(=O)NCc4ccco4)c(=N)n(CCOCCO)c3nc12 | 3.61 µM | 3.76
O=C(COc1ccc(/C=N/NC(=O)c2ccc(O)cc2)cc1)Nc1ccc([N+](=O)[O-])cc1 | 2.97 µM | 0.957
CSC1=NSC2=NC(=O)/C(=C\c3coc4ccccc4c3=O)C(=N)N12 | 2.74 µM | 82.6
OCCNc1nc(Nc2ccc(Br)cc2)nc2ccccc12 | > 54 µM (inactive) | 0.987
Cc1ccc(-c2noc(CCC(=O)N3CCCC3)n2)cc1 | > 54 µM (inactive) | 1.01
Nc1cc(C(=O)O)c(N)c2c1C(=O)c1ccccc1C2=O | < 0.42 µM | 4.83
CCOC(=O)c1sc2nc3c(SCCC(=O)O)cc(C(=O)c4cc(OC)ccc4O)cn3c(=O)c2c1C | > 54 µM (inactive) | 1.04
NC(=O)c1sc2nc3c(c(-c4ccccc4)c2c1N)CCC3 | > 54 µM (inactive) | 0.963
COc1ccc(C2C=C(c3ccc(Cl)cc3)Nc3nc(NC(C)=O)nn32)cc1 (stereo not drawn) | 5.59 µM | 3.32
CC1(C)CC(=O)C2=C(C1)OC(N)=C(C#N)C2c1cc2c(cc1[N+](=O)[O-])OCO2 (stereo not drawn) | 2.04 µM | 3.34
Cc1cc(/C=N/NC(N)=S)c(O)c(/C=N/NC(N)=S)c1 | < 0.42 µM | 26.6

Structure (SMILES) | IC50 | fold change
C#CCOC(=O)/C(=C/C=C/c1ccccc1)NC(=O)c1ccccc1 | > 54 µM (inactive) | 1.01
Cc1ccc(CNC(=O)c2ccc(-n3cccc3)cc2)cc1 | > 54 µM (inactive) | 1.15
O=C(ONc1ccc(N=NC(=O)c2ccccc2O)cc1)c1ccccc1 | > 54 µM (inactive) | 1.09
Nc1ccc2nonc2c1[N+](=O)[O-] | < 0.42 µM | 41
Nn1c(SCC(=O)NC(=O)NCc2ccco2)nnc1-c1ccc(OC(F)F)cc1 | 31.1 µM (inactive) | 1.09
O=C1/C(=C/c2ccco2)Oc2c1ccc(O)c2CN1CCCCC1 | 1.93 µM | 22.1
CCCCn1c(=O)[nH]c2nc3cc(NC(C)=O)ccc3nc2c1=O | 3.91 µM | 3.87
O=c1[nH]c(S)c(/C=C2\C=Nc3ccccc32)s1 | 2 µM | 3.56
Cc1cc(-c2ccc(N3CCOCC3)cc2)nc2ccccc12 | – | 2.8
O=C(COC(=O)c1ccc(NS(=O)(=O)c2cccs2)cc1)NCc1ccco1 | > 54 µM (inactive) | 1.01
Cc1ccc(OCCn2c(C3CC(=O)N(Cc4ccccc4)C3)nc3ccccc32)cc1 (stereo not drawn) | > 54 µM (inactive) | 1.15
COc1ccc(OC)c2c1C(=O)c1ccccc1C2=O | < 0.42 µM | 41.6
COC(=O)c1ccc2c(=O)sc(N3CCC(C(N)=O)CC3)nc2c1 | 4 µM | 2.35
C=CCc1cccc(C=Nc2cc(Br)ccc2O)c1O | 5.72 µM | 27.4
Cc1cccc(N2C(=O)NC(=O)/C(=C/c3cc4c(cc3[N+](=O)[O-])OCO4)C2=O)c1 | 2.62 µM | 3.71
CCOc1cc(C=C2C(=O)c3ccccc3C2=O)ccc1OCC(=O)Nc1ccc(C)cc1 | 2.18 µM | 11.6
CCOC(=O)C(=O)/C(=C\N(C)C)c1onc(-c2ccccc2)c1C(=O)OC | > 54 µM (inactive) | 1.05
CN1C(=O)N(C)c2ccc(C=O)c3cccc1c23 | 4.91 µM | 2.37
O=C(O)CSc1cc(C(=O)c2ccccc2O)cn2c(=O)c3c4c(sc3nc12)CCCC4 | > 54 µM (inactive) | 1.02
Nc1ccc2nc3c(=O)[nH]c(=S)[nH]c3nc2c1 | < 0.42 µM | 86.2
CCOc1cc(Br)c(Br)c(C=Nc2ccc(NC(C)=O)cc2)c1O | 1.93 µM | 8.05

Structure (SMILES) | IC50 | fold change
CCN(CC)c1ccc2cc(-c3nc(-c4ccc(OC)cc4)cs3)c(=O)oc2c1 | < 0.42 µM | 58
Cc1ccc(C(=O)ONc2ccc(N=NC(=O)c3ccccc3O)cc2)cc1 | 4.35 µM | 0.99
Cc1cc(/C=C(\C#N)c2nc3ccccc3[nH]2)c(C)n1C | 1.32 µM | 6.63
O=c1nc2s/c(=C\c3ccc(-c4ccccc4[N+](=O)[O-])o3)c(=O)n2nc1-c1ccccc1 | < 0.42 µM | 9.05
CCOC(=O)/C(C#N)=C\c1ccc(N2CCN(C/C=C/c3ccccc3)CC2)cc1 | 18.7 µM | 16
Cc1ccccc1NC(=O)CSc1ccsc1[N+](=O)[O-] | 15.2 µM | 1.04
O=C(N/N=C/c1ccc(Cl)cc1)c1nc2ccc([N+](=O)[O-])cc2c(=O)[nH]1 | > 54 µM (inactive) | 1.04
O=c1[nH]c(=O)n(Cc2ccccc2)c(O)c1/C=C1\C=Nc2ccccc21 | 2.18 µM | 6.67
CCn1c2ccccc2c2cc(NC(=O)c3coc(=O)c(Br)c3)ccc21 | < 0.42 µM | 21.9
COc1ccc(OC)c(C2C3CN(C(C)C)CC=C3C(C#N)=C(N)C2(C#N)C#N)c1 (stereo not drawn) | 5.91 µM | 3.96
CCC1(CC)NC(=O)N(CC(=O)Nc2sc3c(c2C(N)=O)CCC3)C1=O | > 54 µM (inactive) | 1.23
CC1C2C(C)N(C)C(=O)N(C)C2N(C)C(=O)N1C (stereo not drawn) | 8.68 µM | 8.94
S=C(Nc1ccc(N2CCOCC2)cc1)Nc1ccc2nc(-c3ccco3)c(-c3ccco3)nc2c1 | 3.86 µM | 3.7
CCCCNc1ccc2c3c(cccc13)C(=O)N(CCCC)C2=O | < 0.42 µM | 98.3
COc1ccccc1NC(=O)C(=O)N/N=C/c1ccc([N+](=O)[O-])s1 | > 54 µM (inactive) | 1.09
CCCCNC(=O)CN1C(=O)c2cccc(N)c2C1=O | 2.71 µM | 2.44
CCCCn1nc(-c2ccccc2)c2nc3ccccc3nc21 | 3.13 µM | 22.6
CNc1cccc2c1C(=O)c1ccccc1C2=O | 2.8 µM | 2.44
c1ccc(-c2cn3nc4c(nc3n2)CCCC4)cc1 | 4.56 µM | 2.57
